# Earlier results as cited in patent publication EP4810529A1, “1,1-DICYANOETHYLENE-CONTAINING COMPOSITION, CURED PRODUCT, LAMINATE, AND METHOD FOR PRODUCING 1,1-DICYANOETHYLENE-CONTAINING COMPOSITION” (Kuraray Co., Ltd., priority 2023, dated 2025).
# Details: logarithmic acid dissociation constant, room temperature, aqueous system, first stage
smiles,measurement,value
O=[N+]([O-])O [nitric acid],pKa,-1.3
